# Key:
# Z-138 = assay: Antiproliferative activity against human Z138 cells assessed as inhibition of cell growth incubated for 72 hrs by MTT assay; type: functional, cell-based; details: Z-138, 72 h
# [1] = Antiproliferative activity against human DND41 cells assessed as inhibition of cell growth incubated for 72 hrs by MTT assay; type: functional, cell-based; details: DND41, 72 h
# CAPAN-1 = assay: Antiproliferative activity against human CAPAN-1 cells assessed as inhibition of cell growth incubated for 72 hrs by MTT assay; type: functional, cell-based; details: CAPAN-1, 72 h
# HL-60 = assay: Antiproliferative activity against human HL-60 cells assessed as inhibition of cell growth incubated for 72 hrs by MTT assay; type: functional, cell-based; details: HL-60, 72 h
# HCT-116 = assay: Antiproliferative activity against human HCT-116 cells assessed as inhibition of cell growth incubated for 72 hrs by MTT assay; type: functional, cell-based; details: HCT-116, 72 h
# [2] = Cytotoxicity against hFB-hTERT6 cells assessed as inhibition of cell growth incubated for 72 hrs by MTT assay; type: toxicity, cell-based; details: human
# [3] = Antiproliferative activity against multidrug resistant human K562/4 cells expressing P-gp assessed as inhibition of cell growth incubated for 72 hrs by MTT assay; type: functional, cell-based; details: K562/4, 72 h
# LN-229 = assay: Antiproliferative activity against human LN-229 cells assessed as inhibition of cell growth incubated for 72 hrs by MTT assay; type: functional, cell-based; details: LN-229, 72 h
# K562 = assay: Antiproliferative activity against human K562 cells assessed as inhibition of cell growth incubated for 72 hrs by MTT assay; type: functional, cell-based; details: K562, 72 h
# NCI-H1975 = assay: Antiproliferative activity against human NCI-H1975 cells assessed as inhibition of cell growth incubated for 72 hrs by MTT assay; type: functional, cell-based; details: NCI-H1975, 72 h
IC50 (HL-60) [µM],IC50 (HCT-116) [µM],IC50 (K562) [µM],IC50 (NCI-H1975) [µM],SMILES,IC50 (Z-138) [µM],IC50 [1] [µM],IC50 (CAPAN-1) [µM],IC50 at 72 h [2] [µM],IC50 [3] [µM],IC50 (LN-229) [µM]
2,1.1,2,1.2,N[C@@H]1CCN(C(=O)C2Cc3c(O)c4c(c(O)c3C2)C(=O)c2ccccc2C4=O)C1,2.5,2.3,1.1,4.7,2.1,2
2.3,1.5,2.4,2.3,O=C1c2ccccc2C(=O)c2c(O)c3c(c(O)c21)CC(C(=O)N[C@H]1CCNC1)C3,1.8,1.9,1.5,4.2,4.8,5.1
1.9,3.2,1.7,4.6,O=C1c2ccccc2C(=O)c2c(O)c3c(c(O)c21)CC(C(=O)NC1CCCNC1)C3 (stereo not given),2.2,1.5,1,4.2,3.2,3.5
1.5,1,1.6,1.8,O=C1c2ccccc2C(=O)c2c(O)c3c(c(O)c21)CC(C(=O)NC1CCNCC1)C3,3.1,2,1.7,4.5,4.5,1.4
2.4,3.1,2,3.1,O=C1c2ccccc2C(=O)c2c(O)c3c(c(O)c21)CC(C(=O)N1CCC(N2CCCCC2)CC1)C3,2.5,1.7,1.5,4.5,4.6,2.8
1.9,3.2,1.7,4.6,NC1CCCN(C(=O)C2Cc3c(O)c4c(c(O)c3C2)C(=O)c2ccccc2C4=O)C1 (stereo not given),2.2,1.5,1,4,1.2,3.5

# The next lines start with the molecule.
SMILES,IC50 (HL-60) [µM],IC50 (HCT-116) [µM],IC50 (K562) [µM],IC50 (NCI-H1975) [µM],IC50 (Z-138) [µM],IC50 [1] [µM],IC50 (CAPAN-1) [µM],IC50 at 72 h [2] [µM],IC50 [3] [µM],IC50 (LN-229) [µM]
NCCNC(=O)C1Cc2c(O)c3c(c(O)c2C1)C(=O)c1ccccc1C3=O,3.7,1.4,2.1,1.8,2.1,3.1,1.6,4,6,2.6
N[C@H]1CC[C@H](NC(=O)C2Cc3c(O)c4c(c(O)c3C2)C(=O)c2ccccc2C4=O)CC1,2.7,2.1,2,6.5,2.6,2.5,1.9,4.5,8.8,4.5
NCCN(CCN)C(=O)C1Cc2c(O)c3c(c(O)c2C1)C(=O)c1ccccc1C3=O,2.3,1.3,1.9,1.8,2.5,2.4,1.6,2.3,18,1.6
NCCCNC(=O)C1Cc2c(O)c3c(c(O)c2C1)C(=O)c1ccccc1C3=O,45,2.1,3.7,3.3,> 50,43,3.6,6.5,7.8,3.9
O=C1c2ccccc2C(=O)c2c(O)c3c(c(O)c21)CC(C(=O)NC1CN2CCC1CC2)C3 (stereo not given),2.1,1.5,1.6,6.2,2.7,2.2,1.8,2.4,4.1,1.9
O=C1c2ccccc2C(=O)c2c(O)c3c(c(O)c21)CC(C(=O)NC1CNC1)C3,2.7,1.4,2.7,2.7,2.8,3.1,1.5,4.3,33,2.9

# From ChEMBL document CHEMBL5528031, “Synthesis and antitumor activity of cyclopentane-fused anthraquinone derivatives” (Eur J Med Chem, 2024)
